The first experiment addresses T1, Acetylcholinesterase (Bos taurus, UniProt P23795).
T1 sequence (P23795 whole entry): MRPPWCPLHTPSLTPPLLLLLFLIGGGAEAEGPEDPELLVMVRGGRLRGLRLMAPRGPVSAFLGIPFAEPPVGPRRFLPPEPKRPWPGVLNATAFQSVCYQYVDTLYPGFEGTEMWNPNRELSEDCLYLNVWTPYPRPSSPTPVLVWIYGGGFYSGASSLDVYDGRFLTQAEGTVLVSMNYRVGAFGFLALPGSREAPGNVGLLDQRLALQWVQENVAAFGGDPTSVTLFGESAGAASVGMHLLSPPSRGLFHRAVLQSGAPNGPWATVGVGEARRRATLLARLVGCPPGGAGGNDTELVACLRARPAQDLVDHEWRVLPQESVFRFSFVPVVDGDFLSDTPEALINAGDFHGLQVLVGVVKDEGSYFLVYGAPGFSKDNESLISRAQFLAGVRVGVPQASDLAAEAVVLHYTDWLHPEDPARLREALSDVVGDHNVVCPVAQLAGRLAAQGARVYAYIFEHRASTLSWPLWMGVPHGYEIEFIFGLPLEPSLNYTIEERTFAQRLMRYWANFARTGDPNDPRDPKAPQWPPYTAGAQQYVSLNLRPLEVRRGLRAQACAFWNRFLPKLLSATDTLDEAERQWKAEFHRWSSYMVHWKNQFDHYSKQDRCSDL
Description: In vitro inhibitory activity against bovine acetylcholinesterase
In turn, `CCC1=CC2Cc3nc4cc(Cl)ccc4c(N)c3C(C1)C2` (stereo not given) showed an IC50 of 1.29 nM.

In another experiment the target is T2, Acetylcholinesterase (Homo sapiens, UniProt P22303).
T2 sequence (P22303 whole entry): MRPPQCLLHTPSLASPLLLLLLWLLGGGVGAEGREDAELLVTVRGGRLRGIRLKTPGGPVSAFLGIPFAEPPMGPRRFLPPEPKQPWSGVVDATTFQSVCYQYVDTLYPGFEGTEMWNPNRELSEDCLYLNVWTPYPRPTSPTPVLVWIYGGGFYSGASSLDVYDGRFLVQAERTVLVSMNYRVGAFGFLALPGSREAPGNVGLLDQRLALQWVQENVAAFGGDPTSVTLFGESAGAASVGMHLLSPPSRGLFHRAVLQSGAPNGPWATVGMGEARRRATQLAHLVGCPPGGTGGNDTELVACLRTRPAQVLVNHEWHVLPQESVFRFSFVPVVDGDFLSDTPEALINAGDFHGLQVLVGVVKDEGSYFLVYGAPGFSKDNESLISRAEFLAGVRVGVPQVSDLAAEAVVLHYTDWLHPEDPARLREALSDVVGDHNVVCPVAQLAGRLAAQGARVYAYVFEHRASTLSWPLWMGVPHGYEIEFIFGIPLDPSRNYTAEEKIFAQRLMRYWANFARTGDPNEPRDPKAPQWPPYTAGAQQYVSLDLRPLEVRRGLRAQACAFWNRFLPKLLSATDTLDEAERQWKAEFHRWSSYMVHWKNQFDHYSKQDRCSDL
Description: In vitro inhibitory activity against human erythrocyte acetylcholinesterase
For the compound `Nc1c2c(nc3ccc(O)cc13)CCCC2`, the IC50 is 162 nM.

`Nc1c2c(nc3cccc(F)c13)C1CC(C2)C1` gave an IC50 of 28.8 nM.

A further experiment has as its target T2, Acetylcholinesterase. Briefly: Inhibitory activity against of human erythrocyte acetylcholinesterase.
`NC1=C2CCCCC2=NC2CCCCC12` (stereo not given) gave an IC50 of 363 nM. This lies in the sub-micromolar range.

A further experiment has as its target T2, Acetylcholinesterase. This is another data set of the same source.
Description: Inhibitory activity against human erythrocyte acetylcholinesterase
Consider `C=C1c2c(Cl)cccc2N=C2CCCCCN12`, for which inhibition was half-maximal at 1700 nM (IC50).

For the compound `C=C1c2ccc(Cl)cc2N=C2CCCCCN12`, half-maximal inhibition (IC50) required 158 nM.

As to `Nc1c2c(nc3cccc(F)c13)CCCC2`, half-maximal inhibition (IC50) was put at 79.4 nM.

As for `C=C1c2cccc(Cl)c2N=C2CCCCCN12`, the IC50 is 1510 nM.

In turn, `C=C1c2ccccc2N=C2CCCCCN12` had an IC50 of 3720 nM.

`Nc1c2c(nc3ccc(Cl)cc13)OCCC2` had an IC50 of 10000 nM.

`CCC1=CC2Cc3nc4cc(Cl)ccc4c(N)c3C(C1)C2` (stereo not given) gave an IC50 of 0.324 nM.

Regarding `S=c1c2ccc(Cl)cc2nc2n1CCCCC2`, the IC50 is > 100000 nM.

As for `C=C1c2cc(Cl)ccc2N=C2CCCCCN12`, 501 nM corresponded to half-maximal inhibition (IC50). That is a sub-micromolar value.

Regarding `Nc1c2c(nc3cnccc13)OCCC2`, the IC50 is 41700 nM.

Consider `O=c1c2ccc(Cl)cc2nc2n1CCCCC2`, for which the IC50 is > 100000 nM.

For orientation: IC50 means the midpoint of a concentration-inhibition curve. Read a high IC50 as weaker potency.

The values are drawn from ChEMBL document CHEMBL1138734, “Modulation of binding strength in several classes of active site inhibitors of acetylcholinesterase studied by comparative binding energy analysis” (J Med Chem, 2004).
